In patent publication US20250243196A1, “CITRON KINASE INHIBITORS” (The Cleveland Clinic Foundation, priority 2021, published 2025):
pIC50: −log10 of the molar value.

Assays:
BIKE = BIKE (Homo sapiens (Human), UniProt Q9NSY1); test: KinaseProfiler radiometric assay (16-044KP); type: biochemical; settings: mean of at least two independent experiments
Source text: In another aspect, disclosed is a method of inhibiting citron kinase in a sample, comprising contacting the sample with a compound described herein (e.g., a compound of formula (I) or a pharmaceutically acceptable salt thereof), or a pharmaceutical composition described herein (e.g., a pharmaceutical composition comprising a compound of formula (I) or a pharmaceutically acceptable salt thereof), in an amount effective to inhibit citron kinase. In some embodiments, the step of contacting the sample with the compound comprises administering the compound to a subject (e.g., a subject) suffering from cancer. Methods of determining kinase inhibition are well known in the art. For example, kinase activity of an enzyme and the inhibitory capacity of a test compound can be determined by measuring enzyme specific phosphorylation of a substrate. Commercial assays and kits can be employed. For example, kinase inhibition can be determined using a radiometric binding assay, such as using KinaseProfiler™ technology (Eurofins Discovery). This assay method directly detects product formation without the use of modified substrates or coupling enzymes. […]
The effect of various compounds on the inhibition of other kinases has also been determined. Table 2 reports measured IC50 values; value units are nanomolar inhibition.

[1] = target: NanoLuc-CITK (full-length human CITK) (Homo sapiens (Human), UniProt O14578); test: NanoBRET intracellular target engagement assay; type: cell-based
Method: In-cell Kd values were evaluated with a NanoBRET Target Engagement Assay essentially as recommended by the manufacturer (Promega Corporation—for details see https://www.promega.com/resources/technologies/nanoluc-luciferase-enzyme/cellular-target-engagement/).
HEK293T cells were transfected with 5.0 μg/mL sterile NanoLuc-CITK DNA, 5.0 μg/mL Transfection Carrier DNA, and 30 μL/mL FugeneHD® (Promega) in Opti-Mem™ (Thermo) media at a cell density of 250,000 cells/mL. […] 5 μL of the 25× Tracer K10 solution was added to each well. Next, designated inhibitors were prepared from powder as 10 mM DMSO stocks and then further diluted to 10× the final assay concentration in Opti-Mem™. 12-pt dose-response curves were prepared by 3×-serial dilution. […] A 3× Complete Substrate+Inhibitor solution, containing 6 mL of Opti-Mem™, 36 μL of NanoBRET Nano-Glo Substrate, and 12 μL Extracellular NanoLuc Inhibitor was freshly prepared for each plate. 50 μL of the 3× Complete Substrate+Inhibitor solution was added to all wells and the plate was incubated for 2 min with 500 RPM shaking. The bottom of the plates were covered with black plate seals and then measured on a Cytation 5 plate reader (Biotek) with a NanoBRET Filter Cube (Biotek; 450/50 emission & 610LP emission). Background corrected BRET ratios (in mBU) were calculated in Excel and IC50's were subsequently extracted using four-parameter non-linear regression in GraphPad Prism 8.

CRIK(h) = CRIK(h) (Homo sapiens (Human), UniProt O14578); test: KinaseProfiler panel; type: biochemical; design: dose or concentration left out as unconfirmed; settings: activity remaining
ALK1(h) = ALK1(h) (Homo sapiens (Human), UniProt P37023); test: KinaseProfiler panel; type: biochemical; design: dose or concentration left out as unconfirmed; settings: activity remaining
CaMKIIβ(h) = CaMKIIβ(h) (Homo sapiens (Human), UniProt Q13554); test: KinaseProfiler panel; type: biochemical; design: dose or concentration left out as unconfirmed; settings: activity remaining
CLK4(h) = CLK4(h) (Homo sapiens (Human), UniProt Q9HAZ1); test: KinaseProfiler panel; type: biochemical; design: dose or concentration left out as unconfirmed; settings: activity remaining
EphB4(h) = EphB4(h) (Homo sapiens (Human), UniProt P54760); test: KinaseProfiler panel; type: biochemical; design: dose or concentration left out as unconfirmed; settings: activity remaining
GCN2(h) = GCN2(h) (Homo sapiens (Human), UniProt Q9P2K8); test: KinaseProfiler panel; type: biochemical; design: dose or concentration left out as unconfirmed; settings: activity remaining
GRK6(h) = GRK6(h) (Homo sapiens (Human), UniProt P43250); test: KinaseProfiler panel; type: biochemical; design: dose or concentration left out as unconfirmed; settings: activity remaining
IGF-1R(h) = IGF-1R(h) (Homo sapiens (Human), UniProt P08069); test: KinaseProfiler panel; type: biochemical; design: dose or concentration left out as unconfirmed; settings: activity remaining
JAK3(h) = JAK3(h) (Homo sapiens (Human), UniProt P52333); test: KinaseProfiler panel; type: biochemical; design: dose or concentration left out as unconfirmed; settings: activity remaining
OSR1(h) = OSR1(h) (Homo sapiens (Human), UniProt O95747); test: KinaseProfiler panel; type: biochemical; design: dose or concentration left out as unconfirmed; settings: activity remaining
PIP5K1a(h) = PIP5K1a(h) (Homo sapiens (Human), UniProt Q99755); test: KinaseProfiler panel; type: biochemical; design: dose or concentration left out as unconfirmed; settings: activity remaining
PKBβ(h) = PKBβ(h) (Homo sapiens (Human), UniProt P31751); test: KinaseProfiler panel; type: biochemical; design: dose or concentration left out as unconfirmed; settings: activity remaining
PKR(h) = PKR(h) (Homo sapiens (Human), UniProt P19525); test: KinaseProfiler panel; type: biochemical; design: dose or concentration left out as unconfirmed; settings: activity remaining
SRPK1(h) = SRPK1(h) (Homo sapiens (Human), UniProt Q96SB4); test: KinaseProfiler panel; type: biochemical; design: dose or concentration left out as unconfirmed; settings: activity remaining
Tie2 (h) = Tie2 (h) (Homo sapiens (Human), UniProt Q02763); test: KinaseProfiler panel; type: biochemical; design: dose or concentration left out as unconfirmed; settings: activity remaining
TrkC(h) = TrkC(h) (Homo sapiens (Human), UniProt Q16288); test: KinaseProfiler panel; type: biochemical; design: dose or concentration left out as unconfirmed; settings: activity remaining
Txk(h) = Txk(h) (Homo sapiens (Human), UniProt P42681); test: KinaseProfiler panel; type: biochemical; design: dose or concentration left out as unconfirmed; settings: activity remaining

NanoLuc-CITK (full-length human CITK), sequence (O14578 other isoform, or with tags, fused parts or gaps): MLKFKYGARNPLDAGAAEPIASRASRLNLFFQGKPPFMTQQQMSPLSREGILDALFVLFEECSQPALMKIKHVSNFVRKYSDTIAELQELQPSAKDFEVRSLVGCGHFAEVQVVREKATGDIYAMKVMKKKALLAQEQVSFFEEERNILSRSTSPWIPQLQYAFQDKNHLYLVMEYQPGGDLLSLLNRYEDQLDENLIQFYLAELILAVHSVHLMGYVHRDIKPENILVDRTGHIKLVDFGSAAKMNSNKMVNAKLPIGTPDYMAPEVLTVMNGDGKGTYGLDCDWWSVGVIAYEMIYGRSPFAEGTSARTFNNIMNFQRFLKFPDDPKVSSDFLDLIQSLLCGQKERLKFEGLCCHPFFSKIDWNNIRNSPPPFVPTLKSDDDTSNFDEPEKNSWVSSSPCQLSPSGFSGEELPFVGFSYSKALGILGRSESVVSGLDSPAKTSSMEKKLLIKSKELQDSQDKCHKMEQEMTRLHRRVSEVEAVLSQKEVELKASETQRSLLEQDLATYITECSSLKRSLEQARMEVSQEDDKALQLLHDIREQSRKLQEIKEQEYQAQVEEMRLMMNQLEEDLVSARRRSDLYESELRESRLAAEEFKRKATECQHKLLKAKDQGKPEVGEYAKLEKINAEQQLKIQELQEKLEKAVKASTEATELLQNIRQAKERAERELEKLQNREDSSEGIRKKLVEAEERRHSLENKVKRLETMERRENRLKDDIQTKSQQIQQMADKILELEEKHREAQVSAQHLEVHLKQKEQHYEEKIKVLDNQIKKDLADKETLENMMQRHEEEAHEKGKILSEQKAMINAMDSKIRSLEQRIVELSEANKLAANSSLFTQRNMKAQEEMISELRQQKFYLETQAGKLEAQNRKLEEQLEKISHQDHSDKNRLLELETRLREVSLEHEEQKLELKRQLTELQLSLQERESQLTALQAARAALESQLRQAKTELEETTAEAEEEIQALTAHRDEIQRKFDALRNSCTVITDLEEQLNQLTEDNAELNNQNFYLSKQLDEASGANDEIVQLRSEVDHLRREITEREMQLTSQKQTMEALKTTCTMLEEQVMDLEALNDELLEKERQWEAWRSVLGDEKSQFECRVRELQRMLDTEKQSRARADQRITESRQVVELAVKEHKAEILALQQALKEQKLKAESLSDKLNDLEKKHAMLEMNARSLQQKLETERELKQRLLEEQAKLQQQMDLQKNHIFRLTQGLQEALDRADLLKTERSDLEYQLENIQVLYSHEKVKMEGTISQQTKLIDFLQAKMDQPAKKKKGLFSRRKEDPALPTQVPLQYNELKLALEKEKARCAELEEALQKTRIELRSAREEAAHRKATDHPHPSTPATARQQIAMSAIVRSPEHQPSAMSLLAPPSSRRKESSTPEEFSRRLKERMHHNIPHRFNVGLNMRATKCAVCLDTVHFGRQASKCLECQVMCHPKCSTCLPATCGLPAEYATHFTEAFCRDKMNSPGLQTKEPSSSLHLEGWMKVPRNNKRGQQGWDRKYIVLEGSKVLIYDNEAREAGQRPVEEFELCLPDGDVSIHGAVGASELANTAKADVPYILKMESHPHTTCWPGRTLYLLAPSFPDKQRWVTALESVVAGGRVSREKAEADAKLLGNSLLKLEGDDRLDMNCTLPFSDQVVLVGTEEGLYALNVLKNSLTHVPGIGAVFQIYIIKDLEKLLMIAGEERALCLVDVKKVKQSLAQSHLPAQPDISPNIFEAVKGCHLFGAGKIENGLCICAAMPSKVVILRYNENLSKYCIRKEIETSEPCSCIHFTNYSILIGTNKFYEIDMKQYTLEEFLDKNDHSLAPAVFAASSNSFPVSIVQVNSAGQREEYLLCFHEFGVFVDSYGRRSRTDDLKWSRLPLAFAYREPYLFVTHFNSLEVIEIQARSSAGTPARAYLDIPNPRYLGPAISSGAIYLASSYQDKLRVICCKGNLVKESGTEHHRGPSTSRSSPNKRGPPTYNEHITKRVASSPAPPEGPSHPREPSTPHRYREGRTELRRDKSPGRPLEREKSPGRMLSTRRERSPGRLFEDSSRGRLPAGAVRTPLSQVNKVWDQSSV
TrkC(h), sequence (Q16288 32-839): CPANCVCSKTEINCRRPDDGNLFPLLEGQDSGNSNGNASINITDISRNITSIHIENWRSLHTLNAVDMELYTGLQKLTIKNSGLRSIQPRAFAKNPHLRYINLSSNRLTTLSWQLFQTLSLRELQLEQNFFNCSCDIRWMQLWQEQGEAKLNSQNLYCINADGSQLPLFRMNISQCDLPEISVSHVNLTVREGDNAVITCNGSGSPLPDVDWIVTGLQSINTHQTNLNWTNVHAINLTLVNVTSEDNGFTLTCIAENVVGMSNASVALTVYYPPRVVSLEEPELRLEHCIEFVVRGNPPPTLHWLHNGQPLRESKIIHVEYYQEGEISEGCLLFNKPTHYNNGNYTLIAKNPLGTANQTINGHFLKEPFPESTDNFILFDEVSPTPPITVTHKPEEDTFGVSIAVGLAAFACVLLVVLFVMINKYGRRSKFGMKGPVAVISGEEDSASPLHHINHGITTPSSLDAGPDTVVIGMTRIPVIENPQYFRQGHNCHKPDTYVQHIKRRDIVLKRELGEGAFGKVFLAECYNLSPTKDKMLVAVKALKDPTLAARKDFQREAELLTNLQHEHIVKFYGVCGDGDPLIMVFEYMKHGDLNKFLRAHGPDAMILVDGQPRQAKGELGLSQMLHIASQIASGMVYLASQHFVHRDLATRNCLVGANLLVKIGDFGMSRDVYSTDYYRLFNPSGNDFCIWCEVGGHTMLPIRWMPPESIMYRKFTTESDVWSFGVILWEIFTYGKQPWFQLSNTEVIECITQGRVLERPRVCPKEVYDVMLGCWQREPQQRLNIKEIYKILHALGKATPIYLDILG
CRIK(h), sequence (O14578 whole entry): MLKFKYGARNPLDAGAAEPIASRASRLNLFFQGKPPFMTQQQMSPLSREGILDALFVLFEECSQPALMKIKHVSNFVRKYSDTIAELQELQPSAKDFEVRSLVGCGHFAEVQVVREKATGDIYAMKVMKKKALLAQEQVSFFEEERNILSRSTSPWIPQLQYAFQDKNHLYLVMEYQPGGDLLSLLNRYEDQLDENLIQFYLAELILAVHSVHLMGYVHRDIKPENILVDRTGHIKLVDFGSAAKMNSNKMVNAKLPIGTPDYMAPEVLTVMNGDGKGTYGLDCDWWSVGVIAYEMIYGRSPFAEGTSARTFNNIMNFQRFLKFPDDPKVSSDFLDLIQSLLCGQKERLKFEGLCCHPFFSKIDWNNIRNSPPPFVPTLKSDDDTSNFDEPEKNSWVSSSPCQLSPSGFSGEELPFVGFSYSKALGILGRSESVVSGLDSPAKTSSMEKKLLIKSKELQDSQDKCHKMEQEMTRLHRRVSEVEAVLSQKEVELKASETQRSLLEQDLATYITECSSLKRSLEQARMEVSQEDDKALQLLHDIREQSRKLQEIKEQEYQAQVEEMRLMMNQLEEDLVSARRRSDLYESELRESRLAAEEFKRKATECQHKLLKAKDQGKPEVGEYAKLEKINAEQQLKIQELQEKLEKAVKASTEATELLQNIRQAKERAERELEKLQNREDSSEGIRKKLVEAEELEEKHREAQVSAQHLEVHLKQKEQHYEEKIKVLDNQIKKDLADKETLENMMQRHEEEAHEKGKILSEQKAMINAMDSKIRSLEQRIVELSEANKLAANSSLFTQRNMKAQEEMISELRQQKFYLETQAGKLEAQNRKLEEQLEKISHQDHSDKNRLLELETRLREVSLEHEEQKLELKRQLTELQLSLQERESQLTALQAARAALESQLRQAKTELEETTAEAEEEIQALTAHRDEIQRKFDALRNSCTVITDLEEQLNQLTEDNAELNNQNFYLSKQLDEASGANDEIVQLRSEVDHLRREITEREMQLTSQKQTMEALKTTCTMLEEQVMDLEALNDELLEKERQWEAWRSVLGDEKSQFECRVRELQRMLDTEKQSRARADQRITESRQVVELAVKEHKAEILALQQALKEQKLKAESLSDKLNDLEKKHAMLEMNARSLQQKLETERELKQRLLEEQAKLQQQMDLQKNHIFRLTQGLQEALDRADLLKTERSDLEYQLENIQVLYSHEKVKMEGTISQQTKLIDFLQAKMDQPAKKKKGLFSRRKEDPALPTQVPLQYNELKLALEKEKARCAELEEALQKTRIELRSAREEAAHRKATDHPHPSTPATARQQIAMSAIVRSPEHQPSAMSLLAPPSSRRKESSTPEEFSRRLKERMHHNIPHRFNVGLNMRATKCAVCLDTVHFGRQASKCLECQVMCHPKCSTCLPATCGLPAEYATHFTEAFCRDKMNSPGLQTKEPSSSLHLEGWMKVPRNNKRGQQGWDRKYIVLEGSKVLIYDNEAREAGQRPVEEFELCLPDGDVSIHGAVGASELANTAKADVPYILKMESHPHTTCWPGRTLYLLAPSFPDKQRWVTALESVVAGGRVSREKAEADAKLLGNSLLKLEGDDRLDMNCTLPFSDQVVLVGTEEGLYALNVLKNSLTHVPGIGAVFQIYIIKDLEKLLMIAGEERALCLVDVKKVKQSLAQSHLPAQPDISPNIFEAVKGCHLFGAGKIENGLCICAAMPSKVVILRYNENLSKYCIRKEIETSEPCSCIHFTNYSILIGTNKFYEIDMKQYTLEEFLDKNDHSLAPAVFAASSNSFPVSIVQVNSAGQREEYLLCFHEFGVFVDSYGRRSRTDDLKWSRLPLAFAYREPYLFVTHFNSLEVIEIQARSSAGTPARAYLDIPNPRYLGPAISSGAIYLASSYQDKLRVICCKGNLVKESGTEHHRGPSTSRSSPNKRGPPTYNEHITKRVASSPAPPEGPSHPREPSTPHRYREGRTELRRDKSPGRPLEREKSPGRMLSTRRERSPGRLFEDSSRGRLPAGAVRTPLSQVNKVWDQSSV

Cc1cc2c(-c3ccc(NC(=O)[C@H](N)CC(C)(C)C)cc3C)ccnc2[nH]1 [Compound F-90, (2R)-2-Amino-4,4-dimethyl-N-[3-methyl-4-(2-methyl-1H-pyrrolo[2,3-b]pyridin-4-yl)phenyl]pentanamide]
pIC50 (BIKE): 6.04 | Kd [1]: 9.9 nM | pIC50 ([1]; HEK293T cells transfected with NanoLuc-CITK, Tracer K10 1 μM, 2 hours): 7.28 | % Activity (CRIK(h)): 0% | % Activity (ALK1(h)): 94% | % Activity (CaMKIIβ(h)): 93% | % Activity (CLK4(h)): 85% | % Activity (EphB4(h)): 107% | % Activity (GCN2(h)): 101% | % Activity (GRK6(h)): 95% | % Activity (IGF-1R(h)): 98% | % Activity (JAK3(h)): 106% | % Activity (OSR1(h)): 80% | % Activity (PIP5K1a(h)): 103% | % Activity (PKBβ(h)): 109% | % Activity (PKR(h)): 85% | % Activity (SRPK1(h)): 95% | % Activity (Tie2 (h)): 99% | % Activity (TrkC(h)): 86% | % Activity (Txk(h)): 110%
